From patent EP2961753B1, “STANNOUS FLUORESCENT PROBE” (priority 2014, dated 2015) come the findings set out here.

A short description of data set [1]: pH titration of probe fluorescence. The format is physicochemical. Particulars: 10 µM in PBS, fluorescence at 580 nm, excitation 560 nm, no Sn^2+.
Procedure: pH titration of Compounds R1 and R2 is described. Stock solutions of Compounds R1 and R2 are respectively added to sodium phosphate buffers of various pH to a final concentration of 10 µM. The fluorescence emission spectra are recorded as a function of pH using λex at 560 nm. The titration curves are plotted by fluorescence emission intensities at 580 nm versus pH.
The impact of pH values on fluorescence is described. The pirolactam ring of the rhodamine derivatives will open in a certain pH range and indicates the fluorescence of rhodamine. It is therefore necessary to check the fluorescence properties of Compounds R1 and R2 in solutions with different pH values. […] Considering the application of Sn^2+ probe R1 and R2 intracellular or extracellular may be disturbed by the pH, the acid-base titration experiments are carried out by adjusting the pH with an aqueous solution of NaOH and HCl in Phosphate-Buffered Saline ("PBS") (Fig.2 a and b). […] Figures 2a and 2b show the dependence of fluorescence at 580 nm of comparative Compound R1 and inventive Compound R2 (10 µM) at different pH in PBS solution. Excitation was at 560 nm.
The nature of data set [2]: Metal ion sensing: fluorescence titration with Sn^2+ and selectivity against various metal ions. The format is physicochemical. The note with it: for fluorescence at 580 nm / fluorescence of the solution / selectivity on sensing Sn^2+: metal ions that turn fluorescence on: 20 µM in ethanol-water (1: 1, v/v, PH 7.04); for fluorescence at 580 nm: addition of Sn^2+ (0-20 eq); for fluorescence at 580 nm / selectivity on sensing Sn^2+: metal ions that turn fluorescence on / fluorescence enhancement by other transition and heavy metal ions: excitation 560 nm; for fluorescence of the solution: no metal ion added; for selectivity on sensing Sn^2+: metal ions that turn fluorescence on: various metal ions; for fluorescence enhancement by other transition and heavy metal ions: 20 µM, K^+, Ag^+, Ca^2+, Mg^2+, Zn^2+, Pb^2+, Ni^2+, Mn^2+, Co^2+, Cd^2+, Hg^2+.
Procedure: Solutions of the metal ions (10.0 mM) are prepared in deionized water. A stock solutions of Compounds R1 and R2 (0.2 mM) are each prepared in ethanol and then diluted to 20 µM with ethanol-water (1: 1, v/v, pH 7.04) for spectral measurement. For titration experiments, a 2.0 mL solution of Compounds R1 and R2 (20 µM) are filled in a respective quartz optical cell of 1 cm optical path length. Sn^2+ stock solution is added into the quartz optical cell gradually by micro-pipette. Spectral data is recorded at 5 min after addition. In selectivity experiments, the test samples are prepared by placing appropriate amounts of metal ion stock into 2.0 mL solution of R1, R2 (20 µM). For fluorescence measurements, excitation is provided at 560 nm, while emission is collected from 565 to 700 nm.

As to `CCN(CC)c1ccc2c(c1)Oc1cc(N(CC)CC)ccc1C21c2ccccc2C(=O)N1NC(=O)OC(C)(C)C` [Compound R2], the “pH range for inducing fluorescence turning on” value in data set [1] is 2-4.5. Further, in data set [2], the “fluorescence at 580 nm” value was “turned on and grown drastically”; the “fluorescence of the solution” value is on record as “non-fluorescent”; the “selectivity on sensing Sn^2+: metal ions that turn fluorescence on” value is “tuning on just in the presence of Sn^2+ and Cr^3+”; the “fluorescence enhancement by other transition and heavy metal ions” value was “minimal enhancement”.

On to “Spiro[1H-isoindole-1,9'-[9H]xanthen]-3(2H)-one, 2-[2-[bis(2-hydroxyethyl)amino]amino]ethyl]-3',6'-bis(diethylamino) [Compound R1]”, for which the “pH range for inducing fluorescence turning on” value in data set [1] is reported as 2.5-6. Besides, in data set [2], the “fluorescence at 580 nm” value was “turned on and grown drastically”; the “fluorescence of the solution” value is on record as “non-fluorescent”; the “selectivity on sensing Sn^2+: metal ions that turn fluorescence on” value was “tuning on just in the presence of Sn^2+ and Cr^3+”; the “fluorescence enhancement by other transition and heavy metal ions” value was “minimal enhancement”.
